Measured values from patent publication US20260216182A1, “PYRIDAZINE NLRP3 INHIBITOR COMPOUND, PHARMACEUTICAL COMPOSITION, AND PREPARATION METHOD THEREFOR AND USE THEREOF” (CHANGCHUN GENESCIENCE PHARMACEUTICAL CO., LTD., priority 2022, published 2026).
Where two headings read alike, the source gives them in different places. Marks after values point to notes of the source that are not given here.

Legend:
[1] = test system: mouse NASH model; experiment: Mouse NASH model test (HFD + fructose), combination with semaglutide; assay type: in vivo, mice
Procedure: Test Example 6 Mouse NASH Model Test
After the animals arrived and acclimatized for 1 week, they were randomly divided into 2 groups. 48 mice were fed a high-fat diet (HFD) and had free access to 15% fructose water (w/w). After the animals were fed for 20 weeks, they were fasted for 6 h, and fasting blood glucose (FBG) was monitored by a blood glucose meter. Orbital blood was taken from all animals, and serum was collected by centrifugation to detect serum ALT levels. Animals were randomly divided into 6 groups according to their body weight, FBG and ALT levels. After that, the high fat feed (HFD) was replaced with the modified high fat feed (mHFD), and the mice had free access to 15% fructose water (v/w). The 8 mice in the other group were fed normal diet and water.
The first end point of the experiment: After 8 weeks of administration, the end point body weight was recorded and the animals were fasted for 6 h, and fasting blood glucose was measured with a blood glucose meter. The mice were then euthanized by CO2 and serum was collected by orbital blood sampling and stored at −80° C. for insulin and biochemical analysis. The animal's liver was taken and the liver weight was recorded. The liver was divided into four parts, one part was quick-frozen in liquid nitrogen for biochemical analysis, one part was placed in tissue fixative for pathological analysis, one part was stored in RNAlater for qPCR detection (backup for later use), and one part was quick-frozen in liquid nitrogen for possible subsequent detection.
The second end point of the experiment: 3 mice were kept in each group for 6 weeks for further observation. The end point body weight was recorded and the mice were fasted for 6 h. Fasting blood glucose was tested with a blood glucose meter. The mice were then euthanized by CO2 and serum was collected by orbital blood sampling and stored at −80° C. for insulin and biochemical analysis. The animal's liver was taken and the liver weight was recorded. The liver was divided into four parts, one part was quick-frozen in liquid nitrogen for biochemical analysis, one part was placed in tissue fixative for pathological analysis, one part was stored in RNAlater for qPCR detection (backup for later use), and one part was quick-frozen in liquid nitrogen for subsequent detection.

[2] = 14-day toxicity experiment on rats: toxicokinetics; assay type: in vivo, SD rats; details: for Cmax / AUC(0-t): SD, rat, plasma, po; for AUC(0-t): read-out: AUC(0-24)
Procedure: (§1) Test Example 7 14-Day Toxicity Experiment on Rats
(§2) SD rats were orally gavaged with compound 062 and the control compound once a day for a total of 14 times. The toxic reactions caused by compound 062 and the control compound were observed and their toxicokinetics were studied.
(§3) Oral gavage. The drug was stirred for at least 30 min prior to administration and continuously stirred throughout the administration. The dosing frequency was once a day for 14 consecutive days, and the dosing amount was 10 mL/kg (the dosing amount was calculated based on the most recent weight).
Different time points before and after administration on D1 and D14.
Group 2 to Group 7: Before dosing and 0.5 h, 1 h, 2 h, 4 h, 8 h and 24 h after dosing (before dosing on D2 and/or D15).
Whole blood was collected into a blood collection tube containing EDTA-K2, the tube was immediately and gently inverted upside down several times to mix the system thoroughly, and placed on crushed ice/ice pack. Blood was centrifuged (2000 g, 10 min) at 4° C. (set temperature, allowable temperature range: 2 to 8° C.) within 1 h after blood collection. The collected plasma was divided into two portions into separate labeled EP tubes (one for testing and one for standby testing), and stored in an ultra-low temperature refrigerator (−70° C. to −90° C.) within 2 h after collection. The samples were stored in dry ice during transportation and transfer.
The drug concentration in plasma was analyzed by using LC-MS/MS, verified blood drug concentration data was provided, and the main toxicokinetic parameters (AUC0-t, Cmax and Tmax) were calculated and compared.

[3] = test system: SD rats; experiment: 14-day toxicity experiment on rats: safety observations; assay type: in vivo
Source text: as §1, §2
An appropriate amount of the test compound was weighed (weighed amount=theoretical required amount/content), and fully ground and dispersed in a mortar (agate or ceramic). Then, an appropriate amount of [5% Solutol HS15 in 95% (0.2% CMC-Na)] was added and the mixture was ground until there were no obvious large particles. Then the mortar was cleaned with [5% Solutol HS15 in 95% (0.2% CMC-Na)] in small amounts several times until there was no drug powder residue observed with the naked eye. The mixture was transferred to a suitable container, well stirred and mixed, and the remaining [5% Solutol HS15 in 95% (0.2% CMC-Na)] was further added to the required volume (streaking method). The system was stirred and mixed for at least 20 min, thereby giving the test sample formulation.
as §3
Dosing period: All surviving animals in the main test group were observed twice a day, once before and after dosing respectively, and observed in detail at least once a week.
Observation contents: The main observation contents include (but not limited to) survival status, injection site, skin, hair, eyes, ears, nose, mouth, chest, abdomen, urogenital area, limbs, as well as breathing, movement, urination, defecation, mental or behavioral changes, etc.
Dosing period: All surviving animals were weighed at least once a week. The body weight of animals in the toxicokinetics (TK) group was only used to calculate the dosage. The body weight data were not statistically analyzed and were only presented as individual data in the summary report.
Dosing period: The food intake of the surviving animals in the main test group was weighed at least once a week, and the average food intake was expressed in g/animal/day.
• End of dosing period: once; • Blood sampling route: abdominal aorta; • Animals: Plan to dissect surviving animals; • Blood was collected into tubes containing anticoagulant (EDTA-K2), and hematological indices were detected using a Sysmex XN-1000V fully automatic blood analyzer; blood was collected into anticoagulant tubes containing sodium citrate, and coagulation indices were detected using a Sysmex CS-5100 coagulometer. The specific detection indices are as follows:
• End of dosing period: once; • Blood sampling route: abdominal aorta; • Animals: Plan to dissect surviving animals; • The animals were fasted overnight, and whole blood was collected into a test tube containing a coagulant and a separation gel. Serum was obtained by centrifugation, and serum biochemical indices were detected using a Hitachi-7180 biochemical analyzer. The specific detection indices are as follows:
• Dissection time: end of dosing period (D15); • Anesthesia method: The specifications of the anesthetic mixture are ketamine of 37.5 mg/mL and xylazine of 2.5 mg/mL. The euthanasia dose is 2-4 mL/kg of the mixture (the anesthetic dose of the animal planned for dissection is calculated based on the body weight after fasting overnight, the concentration will be recorded in the original record and presented in the summary report, and the dose can be adjusted according to the anesthetic effect) by intraperitoneal injection. […]

[4] = 30 mg/kg, 30 mpk oral, Day 1, plasma
[5] = 30 mg/kg, 30 mpk oral, Day 14, plasma
[6] = 60 mg/kg, 60 mpk oral, Day 1, plasma
[7] = 60 mg/kg, 60 mpk oral, Day 14, plasma
[8] = 100 mg/kg, 100 mpk oral, Day 1, plasma
[9] = 100 mg/kg, 100 mpk oral, Day 14, plasma

CC#Cc1ccc2c(-c3ccc(Cl)cc3O)nnc(NC[C@H](O)CO)c2c1 [Compound 062, (S)-3-((4-(4-chloro-2-hydroxyphenyl)-7-(prop-1-yn-1-yl)phthalazin-1-yl)amino) propan-1,2-diol]
rebound of mouse body weight after drug withdrawal ([1]; combination with 0.025 mpk semaglutide, FIG. 5): significantly inhibited the rebound of mouse body weight after drug withdrawal | food intake ([1]; combination with 0.025 mpk semaglutide, FIG. 6): without affecting food intake | levels of ALT, AST, LDL and HDL after drug withdrawal ([1]; serum, combination with 0.025 mpk semaglutide, FIG. 7): significantly inhibited the levels of ALT, AST, LDL and HDL after drug withdrawal | exposure in the high-dose group relative to the control compound ([2]; 100 mg/kg high-dose group): 4.8 times | Cmax [2, 4]: 19900 ng/mL | AUC(0-t) [2, 4]: 279 µg·h/mL | Cmax [2, 5]: 31700 ng/mL | AUC(0-t) [2, 5]: 384 µg·h/mL | Cmax [2, 6]: 41100 ng/mL | AUC(0-t) [2, 6]: 622 µg·h/mL | Cmax [2, 7]: 68600 ng/mL | AUC(0-t) [2, 7]: 1120 µg·h/mL | Cmax [2, 8]: 68200 ng/mL | AUC(0-t) [2, 8]: 1120 µg·h/mL | Cmax [2, 9]: 127000 ng/mL | AUC(0-t) [2, 9]: 2120 µg·h/mL | safety (conclusion in words) ([3]; 14-day rat study): good safety | Death/moribundity ([3]; 30, 60, 100 mg/kg/day oral, 14 days): None | safety compared with the control compound ([3]; exposure in high-dose group 4.8 times that of control compound): much better than that of the control compound

CC(C)(O)CNc1nnc(-c2ccc(Cl)cc2O)c2ccncc12 [Control compound]
rebound of body weight after drug withdrawal ([1]; control compound combined with semaglutide): neither the control compound combined with semaglutide nor the groups of low/high dose semaglutide alone inhibited the rebound of body weight | Cmax [2, 4]: 17500 ng/mL | AUC(0-t) [2, 4]: 248 µg·h/mL | Cmax [2, 5]: 13200 ng/mL | AUC(0-t) [2, 5]: 202 µg·h/mL | Cmax [2, 6]: 21400 ng/mL | AUC(0-t) [2, 6]: 360 µg·h/mL | Cmax [2, 7]: 22400 ng/mL | AUC(0-t) [2, 7]: 324 µg·h/mL | Cmax [2, 8]: 24000 ng/mL | AUC(0-t) [2, 8]: 405 µg·h/mL | Cmax [2, 9]: 26700 ng/mL | AUC(0-t) [2, 9]: 439 µg·h/mL | animals with swelling of the left and right hind limbs and ears, females ([3]; 30 mg/kg): 2/5 | animals with swelling of the left and right hind limbs and ears, males ([3]; 30 mg/kg): 4/5 | Gross anatomy, animals with unplanned autopsy (dead animals) ([3]; 100 mg/kg): showed discoloration of the lungs and/or liver. | weight loss before death vs before dosing, animal 4006# ([3]; 100 mg/kg, male, TK group, found dead D 6): weight loss (vs before dosing: ↓28.4%) | body weight decrease before death vs before dosing, animal 4101# ([3]; 100 mg/kg, male, found dead D 4): ↓6.25%); before death, animal 4006# showed | body weight reduction vs. control group ([3]; D 7, high (100 mg/kg)): 22.5% | body weight reduction vs. control group ([3]; D 7, low (30 mg/kg)): 7.7% | body weight reduction vs. control group ([3]; D 7, medium (60 mg/kg)): 16.7% | body weight reduction vs. control group ([3]; D 14, high (100 mg/kg)): 23.3% | body weight reduction vs. control group ([3]; D 14, low (30 mg/kg)): 8.5% | body weight reduction vs. control group ([3]; D 14, medium (60 mg/kg)): 14.6% | #NEU increase ([3]; females, high (100 mg/kg)): 687.1% | MONO % increase ([3]; females, high (100 mg/kg)): 290.3% | #MONO increase ([3]; females, low (30 mg/kg)): 187.7% | MONO % increase ([3]; females, low (30 mg/kg)): 63.6% | #MONO increase ([3]; females, medium (60 mg/kg)): 237.0% | #NEU increase ([3]; females, medium (60 mg/kg)): 251.8% | MONO % increase ([3]; females, medium (60 mg/kg)): 100.6% | ALB reduction vs. control group ([3]; females, ≥100 mg/kg): females: at dose ≥100 mg/kg, ALB (↓28.5%) | GLO increase vs. control group ([3]; females, ≥100 mg/kg): GLO (: ↑ 61.3%) was significantly increased | #MONO increase vs. control group ([3]; males, high (100 mg/kg)): 313.0% | #MONO increase vs. control group ([3]; males, low (30 mg/kg)): #MONO increased (low: ↑ 154.4%, | #MONO increase vs. control group ([3]; males, medium (60 mg/kg)): 215.8% | #EOS increase vs. control group ([3]; males, ≥100 mg/kg): 816.7% | MONO % increase vs. control group ([3]; males, ≥100 mg/kg): 160.3% | body weight gain vs. control group ([3]; ≥30 mg/kg, males and females): low body weight gain
